According to paper PMC11650638, “In Vivo Activity Profiling of Biosynthetic Darobactin D22 against Critical Gram-Negative Pathogens” (ACS Infectious Diseases, 2024):
≈ marks a conversion by molar mass, not a printed value.

Assays:
[1] = tested on: Escherichia coli ATCC25922; set-up: method as in PMID 36308277, PMID 38093695; settings: cited from earlier work
[2] = tested on: Acinetobacter baumannii ATCC17978; experiment: microbe, parasite or virus in culture; assay type: cell-based
Method: (§1) MIC90 determination was performed
(§2) MIC against Clinical Isolates of E. coli.
(§3) Zebrafish Infection Model
(§4) carbenicillin (Carl Roth, Karlsruhe, Germany).3
(§5) Minimum inhibitory concentrations

[3] = tested on: Pseudomonas aeruginosa PAO1; set-up: method as in PMID 36308277, PMID 38093695; settings: cited from earlier work
[4] = tested on: Acinetobacter baumannii DSM30008; set-up: method as in PMID 36308277, PMID 38093695; settings: cited from earlier work
[5] = tested on: Acinetobacter baumannii ATCC17978; experiment: Zebrafish embryo model of A. baumannii infection; settings: 10 mg/kg, caudal vein microinjection 3 hpi
[6] = tested on: Escherichia coli clinical isolates; experiment: MIC against clinical isolates of E. coli (Statens Serum Institut, CLSI); assay type: cell-based
Method: as §1, §2, §3, §4, §5

Escherichia coli C175-94 = experiment: Murine urinary tract infection model; assay type: in vivo, C3H/HeNHsd mice; settings: positive control, BID, day 4
Method: One IV dosing arm at 5 mg/kg was included for comparison. Mice were treated for 3 days post-inoculation, and the bacterial burden was determined on day 4.
In vivo urinary tract infection model. The murine urinary tract infection model was conducted at Statens Serum Institut in Copenhagen, Denmark under the supervision of the Danish Animal Ethical […]
Bacterial challenge organism: The challenge organism was Escherichia coli C175-94 (serotype O8:K48:H4), a clinical isolate elaborating type 1 fimbriae, previously used for developing and validating the urinary tract infecti on model.7
Animals: Upon arrival to Statens Serum Institut animal facility, female C3H/HeNHsd mice 5 -6 weeks old (Envigo, Netherlands), were randomized to 8 mice per cage and acclimatized 1 week before experimental start. Bedding was from Tapvei and Enviro -Dri nesting material and cardboard houses (Bio-serv) was offered as enrichment. Mice had free access to domestic quality drinking water and food […]
Mice were monitored twice daily for clinical symptoms of infection or discomfort and euthanized if reaching humane endpoints specified in the ethical permission […]
Dickinson, cat. […] Colony counts of urine were determined immediately. […]
OD540nm of the supernatant was measured and the hemolytic % was calculated following the formula: (OD test compound – OD blank)-(OD positive

Structure (SMILES)	MIC E. coli [1] [µg/mL]	MIC ([2]; ATCC17978, GFP-tagged A. baumannii ATCC17978) [µg/mL]	MIC ([2]; ATCC17978, WT A. baumannii ATCC17978) [µg/mL]	MIC P. aeruginosa [3] [µg/mL]	MIC A. baumannii [4] [µg/mL]	clearance of A. baumannii infection within zebrafish embryos [5]	MIC ([6]; ATCC25922, E. coli ATCC25922) [µg/mL]	MIC ([6]; E. coli 50639799) [µg/mL]	MIC ([6]; E. coli C175-94) [µg/mL]	MIC ([6]; E. coli DSA443) [µg/mL]	MIC ([6]; E. coli EC 106-09 (ESBL)) [µg/mL]	bacterial burden in urine, bladder, kidney (Escherichia coli C175-94)
N=C(N)NCCC[C@H](NC(=O)[C@H]1NC(=O)[C@H](CO)NC(=O)[C@H]2NC(=O)[C@H](CCC(N)=O)NC(=O)[C@@H](N)Cc3c[nH]c4c(cccc34)O[C@@H]2c2c[nH]c3cc(ccc23)[C@@H]1CCCN)C(=O)N[C@@H](Cc1c[nH]c2ccccc12)C(=O)O [Darobactin D69]	1 (≈ 0.919 µM)	1 (≈ 0.919 µM)	2 (≈ 1.84 µM)	1 (≈ 0.919 µM)	0.5 (≈ 0.459 µM)	completely cleared						
CNC(C)C1CCC(N)C(OC2C(N)CC(N)C(OC3OCC(C)(O)C(NC)C3O)C2O)O1 (stereo not drawn) [Gentamicin, gentamicin]							0.5 to 1 (≈ 1.05 to 2.09 µM)	16 to 32 (≈ 33.5 to 67 µM)	2 (≈ 4.19 µM)	> 64	1 to 2 (≈ 2.09 to 4.19 µM)	reduction of bacterial burden below stasis level in all tissues
